Data published in patent publication US8629157B2, “Pyrrolidine compounds which modulate the CB2 receptor” (Boehringer Ingelheim International GmbH, priority 2009, dated 2014).

Each compound was assayed against human CB2R (Homo sapiens, UniProt P34972) (assay: CB2R mediated modulation of cAMP synthesis). Conditions: not given.
Chain of human CB2R (P34972 whole entry): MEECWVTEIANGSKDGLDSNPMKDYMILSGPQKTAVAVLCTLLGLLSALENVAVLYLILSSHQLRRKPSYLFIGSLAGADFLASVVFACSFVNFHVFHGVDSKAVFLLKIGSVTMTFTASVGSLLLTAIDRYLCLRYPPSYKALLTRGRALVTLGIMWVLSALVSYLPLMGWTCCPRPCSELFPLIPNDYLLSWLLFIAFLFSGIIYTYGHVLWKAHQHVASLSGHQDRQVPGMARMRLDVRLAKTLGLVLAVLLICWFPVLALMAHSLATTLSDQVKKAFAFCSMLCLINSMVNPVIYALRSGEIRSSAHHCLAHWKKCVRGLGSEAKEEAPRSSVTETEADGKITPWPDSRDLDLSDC
Type: cell-based
Method: B. CB2R Mediated Modulation of cAMP Synthesis:
Compounds of the invention were evaluated for their CB2 agonist or inverse agonistic activity in accordance with the following experimental method.
CHO cells expressing human CB2R (Euroscreen) were plated at a density of 5000 cells per well in 384 well plates and incubated overnight at 37° C. After removing the media, the cells were treated with test compounds diluted in stimulation buffer containing 1 mM IBMX, 0.25% BSA and 10 uM Forskolin. The assay was incubated for 30 minutes at 37° C. Cells were lysed and the cAMP concentration was measured using DiscoverX-XS cAMP kit, following the manufacturer's protocol. In this setting, agonists will decrease forskolin induced production of cAMP while inverse agonists will further increase forskolin induced production of cAMP. EC50 of agonists were calculated as follows. The maximal amount of cAMP produced by forskolin compared to the level of cAMP inhibited by 1 uM CP55940 is defined as 100%. […] Data was analyzed using a four-parameter logistic model. (Model 205 of XLfit 4.0).
Work on CC(C)(C)c1cc(NC(=O)[C@@H]2CC(F)(F)CN2C(=O)C2CCC(F)(F)CC2)no1 [(S)-1-(4,4-Difluoro-cyclohexanecarbonyl)-4,4-difluoro-pyrrolidine-2-carboxylic acid (5-tert-butyl-isoxazol-3-yl)-amide] yielded an EC50 of 226 nM.
With CC(C)(C)c1cc(NC(=O)[C@@H]2CCC(=O)N2c2ccc(Cl)cc2F)on1 [(S)-1-(4-Chloro-2-fluoro-phenyl)-5-oxo-pyrrolidine-2-carboxylic acid (3-tert-butyl-isoxazol-5-yl)-amide] the EC50 was 82 nM.
Compound CC(C)(C)c1cc(NC(=O)[C@@H]2CCC(=O)N2c2ccc(Cl)c(F)c2)on1 [(S)-1-(4-Chloro-3-fluoro-phenyl)-5-oxo-pyrrolidine-2-carboxylic acid (3-tert-butyl-isoxazol-5-yl)-amide] has an EC50 of 14.2 nM.
With CC(C)(C)c1cc(NC(=O)[C@@H]2CCC(=O)N2c2ccc(Cl)c(F)c2)no1 [(S)-1-(4-Chloro-3-fluoro-phenyl)-5-oxo-pyrrolidine-2-carboxylic acid (5-tert-butyl-isoxazol-3-yl)-amide] the EC50 was 12.7 nM.
For Cc1cc(N2C(=O)CC[C@H]2C(=O)Nc2cc(C(C)(C)C)no2)ccc1Cl [(S)-1-(4-Chloro-3-methyl-phenyl)-5-oxo-pyrrolidine-2-carboxylic acid (3-tert-butyl-isoxazol-5-yl)-amide], the EC50 was 23.7 nM.
In the case of Cc1cc(N2C(=O)CC[C@H]2C(=O)Nc2cc(C(C)(C)C)on2)ccc1Cl [(S)-1-(4-Chloro-3-methyl-phenyl)-5-oxo-pyrrolidine-2-carboxylic acid (5-tert-butyl-isoxazol-3-yl)-amide], the EC50 is reported as 59.4 nM.
For CC(C)(C)c1cc(NC(=O)[C@@H]2CCCN2S(=O)(=O)c2ccc(Cl)cc2)no1 [(S)-1-(4-Chloro-benzenesulfonyl)-pyrrolidine-2-carboxylic acid (5-tert-butyl-isoxazol-3-yl)-amide], the EC50 was 284 nM.
Compound CC(C)(C)c1cc(NC(=O)[C@@H]2CCCN2Cc2ccc(Cl)cc2)on1 [(S)-1-(4-Chloro-benzyl)-pyrrolidine-2-carboxylic acid (3-tert-butyl-isoxazol-5-yl)-amide] has an EC50 of 2.28 nM.
For CC(C)(C)c1cc(NC(=O)[C@]2(C)CCCN2c2ccc(Cl)cc2)no1 [(S)-1-(4-Chloro-phenyl)-2-methyl-pyrrolidine-2-carboxylic acid (5-tert-butyl-isoxazol-3-yl)-amide], the EC50 was 0.21 nM.
C[C@@]1(C(=O)Nc2ccc(C(F)(F)F)cn2)CCCN1c1ccc(Cl)cc1 [(S)-1-(4-Chloro-phenyl)-2-methyl-pyrrolidine-2-carboxylic acid (5-trifluoromethyl-pyridin-2-yl)-amide] was tested, and the EC50 was 27.2 nM.
With O=C(NCCC1CCCCC1)[C@@H]1CCC(=O)N1c1ccc(Cl)cc1 [(S)-1-(4-Chloro-phenyl)-5-oxo-pyrrolidine-2-carboxylic acid (2-cyclohexyl-ethyl)-amide] the EC50 was 334 nM.
With CC1CC(NC(=O)[C@@H]2CCC(=O)N2c2ccc(Cl)cc2)CC(C)(C)C1 (stereo partly drawn) [(S)-1-(4-Chloro-phenyl)-5-oxo-pyrrolidine-2-carboxylic acid (3,3,5-trimethyl-cyclohexyl)-amide] the EC50 was 212 nM.
In the case of CC(C)c1cc(NC(=O)[C@@H]2CCC(=O)N2c2ccc(Cl)cc2)on1 [(S)-1-(4-Chloro-phenyl)-5-oxo-pyrrolidine-2-carboxylic acid (3-isopropyl-isoxazol-5-yl)-amide], the EC50 is reported as 290 nM.
CCCc1cc(NC(=O)[C@@H]2CCC(=O)N2c2ccc(Cl)cc2)on1 [(S)-1-(4-Chloro-phenyl)-5-oxo-pyrrolidine-2-carboxylic acid (3-propyl-isoxazol-5-yl)-amide] was tested, and the EC50 was 263 nM.
CC(C)(C)c1cc(NC(=O)[C@@H]2CCC(=O)N2c2ccc(Cl)cc2)sn1 [(S)-1-(4-Chloro-phenyl)-5-oxo-pyrrolidine-2-carboxylic acid (3-tert-butyl-isothiazol-5-yl)-amide] showed an EC50 of 135 nM.
For CC(C)(C)c1cccc(NC(=O)[C@@H]2CCC(=O)N2c2ccc(Cl)cc2)c1 [(S)-1-(4-Chloro-phenyl)-5-oxo-pyrrolidine-2-carboxylic acid (3-tert-butyl-phenyl)-amide], the EC50 was 58.7 nM.
CC(C)(C)C1CCC(NC(=O)[C@@H]2CCC(=O)N2c2ccc(Cl)cc2)CC1 (stereo partly drawn) [(S)-1-(4-Chloro-phenyl)-5-oxo-pyrrolidine-2-carboxylic acid (4-tert-butyl-cyclohexyl)-amide] was tested, and the EC50 was 159 nM.
For Cc1ccc(NC(=O)[C@@H]2CCC(=O)N2c2ccc(Cl)cc2)nc1 [(S)-1-(4-Chloro-phenyl)-5-oxo-pyrrolidine-2-carboxylic acid (5-methyl-pyridin-2-yl)-amide], the EC50 was 485 nM.
CC(C)(CO)c1cc(NC(=O)[C@@H]2CCC(=O)N2c2ccc(Cl)cc2)on1 [(S)-1-(4-Chloro-phenyl)-5-oxo-pyrrolidine-2-carboxylic acid [3-(2-hydroxy-1,1-dimethyl-ethyl)-isoxazol-5-yl]-amide] gave an EC50 of 152 nM.
CC(C)(C)CC(C)(C)NC(=O)[C@@H]1CCCN1c1ccc(Cl)cc1 [(S)-1-(4-Chloro-phenyl)-pyrrolidine-2-carboxylic acid (1,1,3,3-tetramethyl-butyl)-amide] gave an EC50 of 25.1 nM.
Compound CC(=O)N1CCC(CNC(=O)[C@@H]2CCCN2c2ccc(Cl)cc2)CC1 [(S)-1-(4-Chloro-phenyl)-pyrrolidine-2-carboxylic acid (1-acetyl-piperidin-4-ylmethyl)-amide] has an EC50 of 0.015 nM.
For CC(C)(C)SCCNC(=O)[C@@H]1CCCN1c1ccc(Cl)cc1 [(S)-1-(4-Chloro-phenyl)-pyrrolidine-2-carboxylic acid (2-tert-butylsulfanyl-ethyl)-amide], the EC50 was 2.61 nM.
With CC1CC(NC(=O)[C@@H]2CCCN2c2ccc(Cl)cc2)CC(C)(C)C1 (stereo partly drawn) [(S)-1-(4-Chloro-phenyl)-pyrrolidine-2-carboxylic acid (3,3,5-trimethyl-cyclohexyl)-amide] the EC50 was 2.16 nM.
Compound O=C(Nc1ccc(C(F)(F)F)c(F)c1)[C@@H]1CCCN1c1ccc(Cl)cc1 [(S)-1-(4-Chloro-phenyl)-pyrrolidine-2-carboxylic acid (3-fluoro-4-trifluoromethyl-phenyl)-amide] has an EC50 of 30.4 nM.
O=C(Nc1nc(-c2ccccc2)ns1)[C@@H]1CCCN1c1ccc(Cl)cc1 [(S)-1-(4-Chloro-phenyl)-pyrrolidine-2-carboxylic acid (3-phenyl-1,2,4-thiadiazol-5-yl)-amide] gave an EC50 of 4.85 nM.
In the case of CCCc1cc(NC(=O)[C@@H]2CCCN2c2ccc(Cl)cc2)on1 [(S)-1-(4-Chloro-phenyl)-pyrrolidine-2-carboxylic acid (3-propyl-isoxazol-5-yl)-amide], the EC50 is reported as 2.41 nM.

Same assay, conditions: CHO cells expressing human CB2R; inhibition of forskolin-stimulated cAMP synthesis; mean; read-out: CB2 CAMP @ EC50 nM (mean)
Compound CCC(C)c1cc(NC(=O)[C@@H]2CCC(=O)N2c2ccc(Cl)cc2)on1 (stereo partly drawn) [(S)-1-(4-Chloro-phenyl)-5-oxo-pyrrolidine-2-carboxylic acid (3-sec-butyl-isoxazol-5-yl)-amide] has an EC50 of 104 nM.
O=C(Nc1nc2cc(Cl)ccc2[nH]1)[C@@H]1CCC(=O)N1c1ccc(Cl)cc1 [(S)-1-(4-Chloro-phenyl)-5-oxo-pyrrolidine-2-carboxylic acid (5-chloro-1H-benzimidazol-2-yl)-amide] was tested, and the EC50 was 255 nM.
COc1ccc(-c2nsc(NC(=O)[C@@H]3CCC(=O)N3c3ccc(Cl)cc3)n2)cc1 [(S)-1-(4-Chloro-phenyl)-5-oxo-pyrrolidine-2-carboxylic acid [3-(4-methoxy-phenyl)-1,2,4-thiadiazol-5-yl]-amide] gave an EC50 of 194 nM.
